Laboratory results: patent publication US20030148970A1, “Methods for specifically inhibiting histone deacetylase-4” (priority 2001, published 2003)

How the values were obtained:
human cancer cells = experiment: cell growth analysis (trypan blue) and apoptosis, cancer cells; type: cell-based; details: 50 nM
Procedure: (§1) In order to determine the effect of HDAC OSDNs on cell growth and cell death through apoptosis, A549 or T24 cells, MDAmb231 cells, and HMEC cells (ATCC, Manassas, Va.) were treated with HDAC OSDNs as previously described.
(§2) For the apoptosis study, cells were analyzed using the Cell Death Detection ELISA Plus kit (Roche Diagnostic GmBH, Mannheim, Germany) according to the manufacturer's directions. Typically, 10,000 cells were plated in 96-well tissue culture dishes for 2 hours before harvest and lysis. Each sample was analyzed in duplicate. ELISA reading was done using a MR700 plate reader (DYNEX Technology, Ashford, Middlesex, England) at 410 nm. The reference was set at 490 nm.
Cells were harvested and cell numbers counted by trypan blue exclusion using a hemocytometer. Percentage of inhibition was calculated as (100-AS cell numbers/control cell numbers)%.

MDAmb231 = experiment: Cell Death Detection ELISA apoptosis, MDAmb231; type: cell-based, human; details: 48 Hour Treatment; TSA at 100 ng/ml
Procedure: as §1, §2

human HDAC-2 protein = experiment: Western blot of HDAC-2 protein in A549 cells; type: cell-based; details: 50 nM, 48 hours
Procedure: (§3) OSDN treatment conditions were as previously described.
(§4) Cells were lysed in buffer containing 1% Triton X-100, 0.5% sodium deoxycholate, 5 mM EDTA, 25 mM Tris-HCl, pH 7.5, plus protease inhibitors. Total protein was quantified by the protein assay reagent from Bio-Rad (Hercules, Calif.). 100 ug of total protein was analyzed by SDS-PAGE. Next, total protein was transferred onto a PVDF membrane and probed with various HDAC-specific primary antibodies. Rabbit anti-HDAC-1 (H-51), anti-HDAC-2 (H-54) antibodies (Santa Cruz Biotechnologies, Santa Cruz, Calif.) were used at 1:500 dilution. Rabbit anti-HDAC-3 antibody (Sigma, St. Louis, Mo.) was used at a dilution of 1:1000. Anti-HDAC-4 antibody was prepared as previously described (Wang, S. H. et al., (1999) Mol. Cell. Biol. 19:7816-27), and was used at a dilution of 1:1000. Anti-HDAC-6 antibody was raised by immunizing rabbits with a GST fusion protein containing a fragment of HDAC-6 protein (amino acid #990 to #1216, GenBank Accession No. AAD29048). Rabbit antiserum was tested and found only to react specifically to the human HDAC-6 isoform. HDAC-6 antiserum was used at 1:500 dilution in Western blots to detect HDAC-6 in total cell lysates. Horse Radish Peroxidase conjugated secondary antibody was used at a dilution of 1:5000 to detect primary antibody binding. […]

human HDAC-2 RNA = experiment: antisense ODN screen in T24 cells, Northern blot, HDAC-2; type: cell-based; details: 100 nM, 24 hours
Procedure: Twenty-four phosphorothioate ODNs containing sequences complementary to the 5′ or 3′ UTR of the human HDAC-2 gene (GenBank Accession No. U31814) were screened as above. […] HDAC-2 MM was created as a control; compared to the antisense oligo, it contains a 7-base mismatch.
(§5) Briefly, human A549 and/or T24 human bladder carcinoma cells were seeded in 10 cm tissue culture dishes one day prior to oligonucleotide treatment. The cell lines were obtained from the American Type Culture Collection (ATCC) (Manassas, Va.) and were grown under the recommended culture conditions. Before the addition of the oligonucleotides, cells were washed with PBS (phosphate buffered saline). Next, lipofectin transfection reagent (GIBCO BRL Mississauga, Ontario, Calif.), at a concentration of 6.25 μg/ml, was added to serum free OPTIMEM medium (GIBCO BRL, Rockville, Md.), which was then added to the cells. The oligonucleotides to be screened were then added directly to the cells (i.e., one oligonucleotide per plate of cells). Mismatched oligonucleotides were used as controls. The same concentration of oligonucleotide (e.g., 50 nM) was used per plate of cells for each oligonucleotide tested.
(§6) Cells were harvested, and total RNAs were analyzed by Northern blot analysis. Briefly, total RNA was extracted using RNeasy miniprep columns (QIAGEN). […]

A549 = experiment: Cell Death Detection ELISA apoptosis, A549; type: cell-based, human; details: 48 Hour Treatment; TSA at 100 ng/ml
Procedure: as §1, §2

T24 = experiment: Cell Death Detection ELISA apoptosis, T24; type: cell-based, human; details: 48 Hour Treatment; TSA at 100 ng/ml
Procedure: as §1, §2

HMEC = experiment: Cell Death Detection ELISA apoptosis, HMEC; type: cell-based, human; details: 48 Hour Treatment; TSA at 100 ng/ml; normal cells
Procedure: as §1, §2

human HDAC-3 RNA = experiment: antisense ODN screen in T24 cells, Northern blot, HDAC-3; type: cell-based; details: 100 nM, 24 hours
Procedure: Twenty-one phosphorothioate ODNs containing sequences complementary to the 5′ or 3′ UTR of the human HDAC-3 gene (GenBank Accession No. AF039703) were screened as above. […] HDAC-3 MM oligo was created as a control; compared to the antisense oligo, it contains a a 6-base mismatch.
as §5, §6

human HDAC-3 protein = experiment: Western blot of HDAC-3 protein in A549 cells; type: cell-based; details: 50 nM, 48 hours
Procedure: as §3, §4

human HDAC-6 RNA = experiment: antisense ODN screen in T24 cells, Northern blot, HDAC-6; type: cell-based; details: 100 nM, 24 hours
Procedure: Thirteen phosphorothloate ODNs containing sequences complementary to the 5′ or 3′ untranslated regions of the human HDAC-6 gene (GenBank Accession No. AJ011972) were screened as above. […] HDAC-6 MM oligo was created as a control; compared to the antisense oligo, it contains a 7-base mismatch.
as §5, §6

human HDAC-6 protein = experiment: Western blot of HDAC-6 protein in A549 cells; type: cell-based; details: 50 nM, 48 hours
Procedure: as §3, §4

GADD45 mRNA = experiment: RNase protection assay, GADD45 in A549; type: cell-based, human; details: TSA 250 ng/ml, 16 hours
Procedure: (§7) As a control, A549 cells were treated by lipofectin with or without TSA (250 ng/ml) treatment for 16 hours. These RNase protection assays were done according to the following procedure. Total RNA from cells was prepared using “RNeasy miniprep kit” from QIAGEN following the manufacturer's manual. Labeled probes used in the protection assays were synthesized using “hStress-1 multiple-probe template sets” from Pharmingen (San Diego, Calif., U.S.A.) according to the manufacturer's instructions. Protection procedures were performed using “RPA II™ Ribonuclease Protection Assay Kit” from Ambion, (Austin, Tx.) following the manufacturer's instructions. Quantitation of the bands from autoradiograms was done by using Cyclone™ Phosphor System (Packard Instruments Co. Inc., Meriden, Conn.).

[1] = tested on: murine erythroleukemia cells; details: Yoshida et al. 1987; cited from earlier work
Bax mRNA = experiment: RNase protection assay, Bax in A549; type: cell-based, human; details: TSA 250 ng/ml, 16 hours
Procedure: as §7

p21 mRNA = experiment: RNase protection assay, p21 in A549; type: cell-based, human; details: TSA 250 ng/ml, 16 hours
Procedure: as §7

mammalian HDAC = details: Yoshida et al. 1990; cited from earlier work

| fold induction of transcription, GADD45, A549, TSA vs lipofectin (GADD45 mRNA) [fold] | fold induction of transcription, Bax, A549, TSA vs lipofectin (Bax mRNA) [fold] | fold induction of transcription, p21, A549, TSA vs lipofectin (p21 mRNA) [fold] | Compound | effect on cancer cell growth and apoptosis (human cancer cells) | Apoptosis, MDAmb231 (MDAmb231) | expression of HDAC-2 protein (human HDAC-2 protein) | antisense activity, HDAC-2 RNA expression (human HDAC-2 RNA) | Apoptosis, A549 (A549) | Apoptosis, T24 (T24) | Apoptosis, HMEC (HMEC) | antisense activity, HDAC-3 RNA expression (human HDAC-3 RNA) | expression of HDAC-3 protein (human HDAC-3 protein) | antisense activity, HDAC-6 RNA expression (human HDAC-6 RNA) | expression of HDAC-6 protein (human HDAC-6 protein) | induction of differentiation in murine erythroleukemia cells [1] | inhibition of mammalian HDAC (mammalian HDAC) |
| --- | --- | --- | --- | --- | --- | --- | --- | --- | --- | --- | --- | --- | --- | --- | --- | --- |
|  |  |  | HDAC-2 AS: 5′-GCTGAGCTGTTCTGATTTGG-3′, antisense to human HDAC2 3′-UTR, U31814 (chemistry not given here) | minimal effect on cancer cell growth inhibition | − (“−”: <= 2× fold over non-specific background) | specifically inhibits the expression of the respective HDAC isotype protein | antisense activity to human HDAC-2 | − (“−”: <= 2× fold over non-specific background) | − (“−”: <= 2× fold over non-specific background) | − (“−”: <= 2× fold over non-specific background) |  |  |  |  |  |  |
|  |  |  | HDAC-3 AS: 5′-CGCTTTCCTTGTCATTGACA-3′, antisense to human HDAC3 3′-UTR, AF039703 (chemistry not given here) | no effect on cancer cell growth or apoptosis | − (“−”: <= 2× fold over non-specific background) |  |  | − (“−”: <= 2× fold over non-specific background) | − (“−”: <= 2× fold over non-specific background) | − (“−”: <= 2× fold over non-specific background) | antisense activity to human HDAC-3 | specifically inhibits the expression of the respective HDAC isotype protein |  |  |  |  |
|  |  |  | HDAC-6 AS: 5′-CAGGCTGGAATGAGCTACAG-3′, antisense to human HDAC6 3′-UTR, AJ011972 (chemistry not given here) | no effect on cancer cell growth or apoptosis | − (“−”: <= 2× fold over non-specific background) |  |  | − (“−”: <= 2× fold over non-specific background) | − (“−”: <= 2× fold over non-specific background) | − (“−”: <= 2× fold over non-specific background) |  |  | antisense activity to human HDAC-6 | specifically inhibits the expression of the respective HDAC isotype protein |  |  |
| 0.6 | 0.8 | 2.8 | CC(/C=C/C(=O)NO)=C\[C@@H](C)C(=O)c1ccc(N(C)C)cc1 [TSA, (R)-Trichostatin A] |  | ++ (“++”: 3-5× fold) |  |  | ++ (“++”: 3-5× fold) | ++ (“++”: 3-5× fold) | + (“+”: 2-3× fold) |  |  |  |  | potent inducer of differentiation | potent inhibitor of mammalian HDAC |
